Assays:
C. elegans mutant IH718 = assay: Growth of heme resistant mutant in CeHR medium; type: in vivo, Caenorhabditis elegans; parameters: key: + = wild type equivalent In growth; ND: No growth
Description: To further increase the stringency of our genetic screen we split the contents from each 800 μM hemin selection flasks into two flasks containing either 800 μM or 1000 μM hemin. This allowed us to use another tier of positive selection to identify mutants with greater resistance to heme toxicity. Mutants from each flask were isolated and treated as a separate entity by giving an identification number based on the Genetic Nomenclature Guidelines used for C. elegans (http://biosci.umn.edu/CGC/Nomenclature/nomenguid.htm). To eliminate EMS-induced spurious mutations that could result in false positive, the mutants were outcrossed to wild-type N2 males. After five outcrosses, which replaces ˜97% of the mutant genome, mutants that bred true were selected for further analysis. Using this procedure, we isolated 13 individual mutants that were resistant to heme toxicity. […]
Worm Culture and Growth Assays. […] Worm growth was monitored each day and an aliquot was obtained for counting by microscopy usually at days 3, 6, and 9. The worms in each well were counted twice and each growth condition was analyzed in triplicate. P values for statistical significance were calculated utilizing a one-way ANOVA with Student-Newman-Keuls multiple comparison test using GraphPad Instat version 3.01. […]

[1] = test system: C. elegans wild-type N2 strain; assay: Worm culture and growth assay in axenic CeHR/mCeHR liquid medium; type: in vivo; parameters: key to Growth 1.6 μM hemin / Growth 0.5 μM GaPP: + = wild type equivalent In growth; ND: No growth
Description: (D) Biphasic response of C. elegans cultured in the presence of increasing amounts of hemin chloride (μM). Equal numbers of synchronized L1 larvae were grown in 24-well plates in mCeHR medium for 9 days and quantified (worms/μl) by microscopy. Each data point represents the mean±SD from three separate experiments performed in triplicate.
(A) Aerobic growth of C. elegans in mCeFIR medium with 20 μM hemin supplemented with either gallium protoporphyrin IX (GaPP) or gallium salts. Synchronized L1 larvae were grown for 9 days in 24-well plates and quantified (worms/μl) by microscopy. Each data point represents the mean from a single experiment, and each experiment was performed in triplicate. Inset depicts the GaPP analysis at lower concentrations for clarity.
(B) Effect of heme on the cytotoxicity of GaPP. Synchronized L1 larvae were inoculated in 24-well plates containing mCeHR medium with either 0, 2, 4, or 6 μM GaPP and increasing hemin (μM). The number of worms per μl was measured on day 9 and the data are presented as mean±SD.
FIG. 9 depicts worm utilization of heme-iron under iron deprivation. Equal numbers of synchronized L1 larvae were grown in the presence of 4, 20, and 100 μM hemin, either in basal mCeHR medium (set 1), or basal medium lacking exogenous iron (set 2), or as set 2 with 1 μM of the iron chelator ferrozine (set 3), or as set 3 with 486 μM ferrous ammonium sulfate (set 4). These values of ferrozine and iron were empirically determined by performing dose-response experiments and analyzing worm growth. The number of worms per μl was measured on day 9 and the data presented as mean±SD performed in triplicate. P<0.001 between sets 1 and 3.
To qualitatively and quantitatively determine the heme requirement of C. elegans, we assessed growth at various heme concentrations. Equal numbers of L1 larvae were inoculated in CeHR medium with either no cytochrome c and hemin, or with cytochrome c and increasing amounts of hemin (FIG. 4A). The effect of hemin became apparent within 48 hours and by 9 days, the heme-deplete worms were severely growth retarded at the L1/L2 stages. […] However, this stimulatory effect of heme was toxic to worms grown at heme concentrations >750 μM. To quantitatively assess the effect of heme on worms, we counted the number of live worms grown under different concentration of heme using DIC microscopy. […] On the basis of this association between heme and the growth and reproduction of C. elegans, we conclude that the biphasic nature of heme is likely due to the need for heme under heme-deprived conditions to perform essential metabolic functions, and the lethality of heme at high concentrations can be attributed to its cytotoxic activity.
(§1) Worm Culture and Growth Assays. Free-living worms were cultured in CeHR axenic liquid medium (Dr. Eric Clegg, Personal Communication). […] CeHR medium was modified (henceforth called mCeHR) to eliminate all sources of exogenously added heme; basal growth medium comprised 20 μM hemin chloride (Frontier Scientific, Logan, Utah) and 150 μM of ferrous ammonium sulfate (Sigma Chemicals). Worm strains were grown in mCeHR medium under aerobic conditions in tissue culture flasks at 20° C. ˜3.7×10^6 worms were routinely obtained after 3.5 to 4 days in a T75 flask with 30 ml basal medium from an initial inoculum of −1.5×10^5 worms. For initial culturing of worms in axenic media, three generations of worms were sequentially bleached (1.1% bleach/0.55 M NaOH) to eliminate any contaminating bacterial carryover from agar plates. In all dose-response experiments, worms were growth synchronized by treating the gravid hermaphrodite worms with bleach to dissolve adult worms. The eggs, resistant to bleach, were liberated from the carcasses and extensively washed with M9 buffer followed by overnight hatching in M9 buffer to synchronize growth. By harvesting at appropriate time intervals, synchronous larval stages and adult staged worms were collected for experimental manipulations. […]

C. elegans mutant IH828 = assay: Growth of heme resistant mutant in CeHR medium; type: in vivo, Caenorhabditis elegans; details: in vivo
Description: (§2) To further increase the stringency of our genetic screen we split the contents from each 800 μM hemin selection flasks into two flasks containing either 800 μM or 1000 μM hemin. This allowed us to use another tier of positive selection to identify mutants with greater resistance to heme toxicity. Mutants from each flask were isolated and treated as a separate entity by giving an identification number based on the Genetic Nomenclature Guidelines used for C. elegans (http://biosci.umn.edu/CGC/Nomenclature/nomenguid.htm). To eliminate EMS-induced spurious mutations that could result in false positive, the mutants were outcrossed to wild-type N2 males. After five outcrosses, which replaces ˜97% of the mutant genome, mutants that bred true were selected for further analysis. Using this procedure, we isolated 13 individual mutants that were resistant to heme toxicity. These mutants were further characterized by analyzing Mendelian segregation ratios, X-linkage, phenotype penetrance, generation times, brood size, and their ability to grow under low hemin. […] This observation was surprising because we anticipated that high heme-resistant mutants will grow poorly under low heme. Based on the mutant's growth profile at low and high heme levels, we broadly categorized them into three phenotypic classes: class A, class B and class C (FIG. 13). These “phenoclusters” have the following growth phenotype: (a) three mutants IH728, IH938, IH731 show with robust growth under low and high (≧800 μM heme (FIG. 13B), (b) one mutant IH828 show exceptional growth under low heme, moderate growth at ≦800 μM heme, and no growth at 1000 μM hemin (FIG. 13C), and (c) six mutants IH921, IH11058, IH1068n, IH1068d, IH1048, and IH718 that show moderate growth under high heme (≦800 μM), but normal growth under low heme (FIG. 13D). By classifying these mutants into phenoclusters, we can focus our efforts on the phenotypic datasets to map the molecular networks and pathways involved in heme dependent processes. For instance, mutants in a cluster may have mutations within the same gene or in multiple genes but within the same pathway.
as §1, with “manipulations. Identical numbers of synchronized L1 larvae were inoculated into media with different heme concentrations in 12- or 24-well culture plates. Worm growth was monitored each day and an aliquot was obtained for counting by microscopy usually at days 3, 6, and 9. The worms in each well were counted twice and each growth condition was analyzed in triplicate. P values for statistical significance were calculated utilizing a one-way ANOVA with Student-Newman-Keuls multiple comparison test using GraphPad Instat version 3.01.” for “manipulations.”

C. elegans mutant IH1048 = assay: Growth of heme resistant mutant in CeHR medium; type: in vivo, Caenorhabditis elegans; parameters: key to Growth 1.6 μM hemin / Growth 0.5 μM GaPP: + = wild type equivalent In growth; ND: No growth
Description: as §2
as §1, with “manipulations. Identical numbers of synchronized L1 larvae were inoculated into media with different heme concentrations in 12- or 24-well culture plates. Worm growth was monitored each day and an aliquot was obtained for counting by microscopy usually at days 3, 6, and 9. The worms in each well were counted twice and each growth condition was analyzed in triplicate. P values for statistical significance were calculated utilizing a one-way ANOVA with Student-Newman-Keuls multiple comparison test using GraphPad Instat version 3.01.” for “manipulations.”

[2] = test system: C. elegans mutant IH1068 n; assay: Growth of heme resistant mutant in CeHR medium; type: in vivo, Caenorhabditis elegans; parameters: key to Growth 1.6 μM hemin / Growth 0.5 μM GaPP: + = wild type equivalent In growth; ND: No growth
Description: as §2
as §1, with “manipulations. Identical numbers of synchronized L1 larvae were inoculated into media with different heme concentrations in 12- or 24-well culture plates. Worm growth was monitored each day and an aliquot was obtained for counting by microscopy usually at days 3, 6, and 9. The worms in each well were counted twice and each growth condition was analyzed in triplicate. P values for statistical significance were calculated utilizing a one-way ANOVA with Student-Newman-Keuls multiple comparison test using GraphPad Instat version 3.01.” for “manipulations.”

[3] = test system: C. elegans mutant IH1068 d; assay: Growth of heme resistant mutant in CeHR medium; type: in vivo, Caenorhabditis elegans; parameters: key to Growth 1.6 μM hemin / Growth 0.5 μM GaPP: + = wild type equivalent In growth; ND: No growth
Description: as §2
as §1, with “manipulations. Identical numbers of synchronized L1 larvae were inoculated into media with different heme concentrations in 12- or 24-well culture plates. Worm growth was monitored each day and an aliquot was obtained for counting by microscopy usually at days 3, 6, and 9. The worms in each well were counted twice and each growth condition was analyzed in triplicate. P values for statistical significance were calculated utilizing a one-way ANOVA with Student-Newman-Keuls multiple comparison test using GraphPad Instat version 3.01.” for “manipulations.”

## C=CC1=C(C)C2=[N+]3C1=Cc1c(C)c(C=C)c4[n]1[Ga-]31[n]3c(c(C)c(CCC(=O)O)c3=CC3=[N+]1C(=C4)C(C)=C3CCC(=O)O)=C2 (centres unmarked) [GaPP, gallium protoporphyrin IX]
C. elegans mutant IH718
  Growth 0.5 μM GaPP: +
[1]; 0, 2, 4 or 6 μM GaPP, day 9
  toxic effect of GaPP in the presence of increasing levels of hemin: attenuated
[1]; 4 μM hemin
  toxicity rank among six non-iron metalloporphyrins tested: most toxic heme analog
[1]; Control Wild-type (N2)
  Growth 0.5 μM GaPP: +
[1]; F1 progeny
  sensitivity compared to hemin: 3,200 fold
[1]; F1 progeny of surviving P0 worms grown at lower GaPP
  GaPP concentration at which worms were growth arrested: 0.25 µM
[1]; P0 and F1 animals
  toxicity relative to hemin: 800-3000 times
[1]; P0 worms
  sensitivity compared to hemin: 800 fold
[1]; P0 worms, medium with hemin
  GaPP concentration at which worms were growth retarded: 1 µM
[1]; in vivo
  sensitivity of worms to GaPPIX compared to heme: 30 times
C. elegans mutant IH828
  resistance of IH828 to GaPP toxicity: extremely resistant
C. elegans mutant IH1048
  Growth 0.5 μM GaPP: +
[2]
  Growth 0.5 μM GaPP: +
[3]
  Growth 0.5 μM GaPP: +

From US20060206946A1, “Method of disrupting heme transport in nematodes and of modelling and evaluating eukaryotic heme transport” (priority 2005, published 2006)
